TGI and GI50 data for 11 compounds are collected here from PubChem BioAssay (NCI).

Where “and” joins values, the source holds several entries; their conditions need not be identical. Identical values can stand only once.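 Tested at 5 concentrations; 48 h exposure; 96-well plates; endpoints linearly interpolated, else capped at highest concentration. GI50 = concentration required for 50% inhibition of growth. At the TGI there is no net growth.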 Where only a bound is given, the exact number is not on record here.

Test systems include EKVX NSCLC; HCC-2998 colon; KM12 colon; LOX IMVI melanoma; M14 melanoma; NCI-H23 lung; OVCAR-4 ovarian; RPMI-8226 leukemia; SK-OV-3 ovarian; UACC-62 melanoma.
What all share (experiment): inhibition of tumour cell growth, NCI panel, 48 h

Regarding `CCCCCCCCCCCCCC(=O)OCC1OC(n2cc(F)c(=O)[nH]c2=O)C(NC(=O)OCc2ccccc2)C(OC(=O)CCCCCCCCCCCCC)C1O` (stereo not given), the TGI in the assay with EKVX NSCLC, with HCC-2998 colon, with KM12 colon, in the assay with LOX IMVI melanoma, in the assay on M14 melanoma and with NCI-H23 lung was more than 100 µM in each case. The TGI with OVCAR-4 ovarian, with RPMI-8226 leukemia, in the assay on SK-OV-3 ovarian and in the assay on UACC-62 melanoma was more than 100 µM each time.
Consider `N#Cc1c2c(c(N=P(c3ccccc3)(c3ccccc3)c3ccccc3)n3c1nc1ccccc13)CCCC2`, for which the TGI was more than 100 µM with EKVX NSCLC; more than 100 µM with HCC-2998 colon; more than 100 µM with KM12 colon; 76.3 µM with LOX IMVI melanoma; more than 100 µM in the assay with M14 melanoma; more than 100 µM with OVCAR-4 ovarian. Besides, the TGI in the assay on RPMI-8226 leukemia was 61.6 µM; in the assay with SK-OV-3 ovarian it was more than 100 µM; in the assay on UACC-62 melanoma, 74.4 µM.
As to `CC1=CC(=C(c2ccc(N)cc2)c2ccc(N)cc2)C=CC1=N`, the GI50 is 1.37 µM and 2.23 µM with EKVX NSCLC; 0.557 µM and 2.72 µM with KM12 colon; 1.38 µM and 3.71 µM in the assay with LOX IMVI melanoma; 0.867 µM and 3.79 µM in the assay on M14 melanoma; 0.828 µM in the assay on NCI-H23 lung; 2.51 µM and 5.01 µM in the assay with OVCAR-4 ovarian. Besides, the GI50 was 2.44 µM and 4 µM in the assay on SK-OV-3 ovarian; 1.3 µM and 3.09 µM in the assay with UACC-62 melanoma. Besides, the TGI with EKVX NSCLC is 20 µM and 70.8 µM and 41.5 µM; with HCC-2998 colon, 2.21 µM and 16 µM and 18.9 µM; in the assay on KM12 colon, 6.54 µM and 7.11 µM and 10.1 µM; in the assay with LOX IMVI melanoma, 5.5 µM and 6.81 µM and 15 µM; with M14 melanoma, 5.25 µM and 17.7 µM and 15.3 µM; in the assay with NCI-H23 lung it was 4.97 µM and 16.2 µM and 16.4 µM. In addition, the TGI in the assay on OVCAR-4 ovarian is 14.3 µM and > 55.2 µM and 71.6 µM; in the assay with SK-OV-3 ovarian, 8.04 µM and 25.2 µM and 17.2 µM; with UACC-62 melanoma, 5.53 µM and 18.3 µM and 16.1 µM.
Consider `CCN(CC)CCOc1ccccc1/C=C/c1noc2ccccc12`, for which the TGI in the assay with EKVX NSCLC was found to be 31.9 µM; with HCC-2998 colon it was 18 µM; in the assay on KM12 colon it was 31.5 µM; in the assay on M14 melanoma, 15.4 µM; in the assay with NCI-H23 lung it was 26.9 µM; in the assay on OVCAR-4 ovarian, 50.7 µM. For the same compound, the TGI in the assay with SK-OV-3 ovarian is 34.3 µM; in the assay with UACC-62 melanoma, 22.4 µM.
As to `CC1SC2=NC3=C(c4ccccc4C3=O)C(c3ccc(Cl)cc3)N2C1=O` (stereo not given), the TGI in the assay on EKVX NSCLC, in the assay on HCC-2998 colon, in the assay on KM12 colon, in the assay with M14 melanoma, with NCI-H23 lung and in the assay with OVCAR-4 ovarian was more than 100 µM in each case. Besides, the TGI in the assay on RPMI-8226 leukemia, with SK-OV-3 ovarian and in the assay on UACC-62 melanoma was more than 100 µM in each case.
Take `COC(=O)C(CC(C)C)NC(=O)NC12CC3CC(CC(F)(C3)C1)C2` (stereo not given): the TGI in the assay on EKVX NSCLC, in the assay with HCC-2998 colon, with KM12 colon, in the assay with LOX IMVI melanoma, in the assay with M14 melanoma and in the assay with NCI-H23 lung was more than 100 µM in each case. For the same compound, the TGI in the assay on RPMI-8226 leukemia, in the assay on SK-OV-3 ovarian and with UACC-62 melanoma was more than 100 µM throughout.
`CCCCCCCCCCCCCC1=NCCN1CCO`: the GI50 is 8.35 µM with EKVX NSCLC; 4.03 µM with HCC-2998 colon; 3 µM with KM12 colon; 3.68 µM in the assay with M14 melanoma; 8.61 µM in the assay on NCI-H23 lung; 7.23 µM in the assay with OVCAR-4 ovarian. Also, the GI50 with RPMI-8226 leukemia was 6.5 µM; in the assay with SK-OV-3 ovarian it was 7.04 µM; with UACC-62 melanoma it was 1.96 µM. For the same compound, the TGI in the assay with EKVX NSCLC worked out at 28.4 µM; in the assay on HCC-2998 colon, 16.5 µM; in the assay with KM12 colon it was 9 µM; in the assay with M14 melanoma it was 10.9 µM; in the assay on NCI-H23 lung it was 31.7 µM; in the assay with OVCAR-4 ovarian, 39.8 µM. Moreover, the figures for the TGI in the assay on RPMI-8226 leukemia, with SK-OV-3 ovarian and with UACC-62 melanoma were more than 81.5 µM, 18.3 µM and 3.95 µM, respectively.
Consider `Cc1cc2c(cc1C)[n+](=O)c(C(=O)C/C(=N/OCCCc1ccccc1)C(=O)Nc1cc(Cl)ccc1Cl)c(C)n2[O-]`, for which the TGI in the assay on EKVX NSCLC, with HCC-2998 colon, with KM12 colon, in the assay with LOX IMVI melanoma, in the assay with M14 melanoma and in the assay with NCI-H23 lung was more than 100 µM each time. For the same compound, the TGI with OVCAR-4 ovarian, with SK-OV-3 ovarian and with UACC-62 melanoma was more than 100 µM each time.
For `CC(=O)c1ccc(OCC(O)CO)cc1` (stereo not given), the TGI with EKVX NSCLC, in the assay on HCC-2998 colon, with KM12 colon, with M14 melanoma, in the assay with NCI-H23 lung and with OVCAR-4 ovarian was more than 100 µM each time. Further, the TGI with RPMI-8226 leukemia, in the assay on SK-OV-3 ovarian and with UACC-62 melanoma was more than 100 µM in each case.
For the compound `O=C(CN(/C=C/C(=O)C(F)(F)F)c1ccc(Cl)cc1)c1ccccc1`, the GI50 is 15.1 µM in the assay with EKVX NSCLC; 7.93 µM in the assay with HCC-2998 colon; 10.8 µM in the assay with KM12 colon; 5.26 µM with LOX IMVI melanoma; 10.6 µM with M14 melanoma; 8.75 µM in the assay with NCI-H23 lung. Moreover, the GI50 in the assay with RPMI-8226 leukemia is 12.9 µM; with SK-OV-3 ovarian, 51.2 µM; in the assay on UACC-62 melanoma, 11.7 µM. Besides, the TGI worked out at 34.1 µM with EKVX NSCLC; 21.1 µM in the assay with HCC-2998 colon; 36.6 µM in the assay with KM12 colon; 22.3 µM with LOX IMVI melanoma; 22.9 µM with M14 melanoma; 27.2 µM in the assay on NCI-H23 lung. Moreover, the TGI in the assay with RPMI-8226 leukemia was 89.3 µM; in the assay with SK-OV-3 ovarian, more than 100 µM; in the assay with UACC-62 melanoma, 26.4 µM.
On to `CC(=O)NC1=C(NCCN(C)C)C(=O)c2ccccc2C1=O`, for which the TGI with EKVX NSCLC was more than 50 µM; in the assay on HCC-2998 colon it was more than 50 µM; with KM12 colon it was more than 50 µM; with LOX IMVI melanoma, more than 50 µM; in the assay with M14 melanoma, more than 50 µM; with NCI-H23 lung, 27.8 µM. For the same compound, the TGI with OVCAR-4 ovarian is 17.7 µM; in the assay on SK-OV-3 ovarian it was more than 50 µM; with UACC-62 melanoma, 22.1 µM.
